# Measurements: PubChem BioAssay AID743104 (Vanderbilt Specialized Chemistry Center, 2013)
# Target: Muscarinic acetylcholine receptor M5 (Rattus norvegicus) (UniProt P08911)
# Test: rat M5 receptor negative allosteric modulators, selectivity assay for human M5 NAM project, cell-based, rat ortholog, CHO-K1, Fluo-4 calcium flux (AID 743104)
# Conditions: CHO-K1 rat M5, Fluo-4 calcium flux, ACh EC20
# Chain of Muscarinic acetylcholine receptor M5 (Rattus norvegicus) (P08911 whole entry, looked up): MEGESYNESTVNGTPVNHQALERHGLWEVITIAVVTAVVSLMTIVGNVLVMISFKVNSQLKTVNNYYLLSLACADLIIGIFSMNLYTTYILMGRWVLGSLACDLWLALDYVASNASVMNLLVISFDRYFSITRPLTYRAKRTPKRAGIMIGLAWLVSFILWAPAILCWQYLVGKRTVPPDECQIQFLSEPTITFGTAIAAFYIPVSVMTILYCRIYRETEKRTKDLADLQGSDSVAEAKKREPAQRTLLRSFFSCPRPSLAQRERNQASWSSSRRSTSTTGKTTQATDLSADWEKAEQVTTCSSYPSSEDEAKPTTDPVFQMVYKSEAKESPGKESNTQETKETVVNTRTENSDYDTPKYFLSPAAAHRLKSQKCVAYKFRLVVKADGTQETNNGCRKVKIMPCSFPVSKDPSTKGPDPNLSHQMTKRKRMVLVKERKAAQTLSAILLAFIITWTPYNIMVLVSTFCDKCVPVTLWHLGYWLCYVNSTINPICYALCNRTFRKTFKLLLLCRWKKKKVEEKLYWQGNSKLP
row,IC50 [µM],SMILES
1,2,O=C(c1ccc(F)c(F)c1)N1CCN2C(=O)c3ccccc3C12c1ccccc1 (stereo not drawn)
2,3.54,O=C(c1cc(F)cc(F)c1)N1CCN2C(=O)c3ccccc3C12c1ccc(Cl)cc1 (stereo not drawn)
3,6.21,O=C(c1ccc(F)cc1)N1CCN2C(=O)c3ccccc3C12c1ccccc1 (stereo not drawn)
